Source: US20230108049A1, “ORAL FAST-DISPERSING DOSAGE FORM OF RIMEGEPANT” (BIOHAVEN PHARMACEUTICAL HOLDING COMPANY LTD., priority 2020, published 2023)

Assays:
[1] = target: MATE2-K (Homo sapiens, UniProt Q86VL8); experiment: In vitro transporter inhibition; format: in vitro ADME; details: at clinically relevant concentrations
[2] = system: bacterial reverse-mutation; experiment: Bacterial reverse-mutation assay (in vitro); format: cell-based
From the text: (§1) Rimegepant was negative in in vitro (bacterial reverse-mutation, chromosomal aberration in Chinese hamster ovary cells) and in vivo (rat micronucleus) assays.

[3] = system: CYP2C9; experiment: Pharmacogenomics: pharmacokinetics by CYP2C9 genotype; format: in vivo, human; details: CYP2C9 intermediate metabolizers (n=43) compared to normal metabolizers (N=72)
From the text: CYP2C9 activity is reduced in individuals with genetic variants such as the CYP2C9*2 and CYP2C9*3 alleles. Rimegepant Cmax and AUC0-inf were similar in CYP2C9 intermediate metabolizers (i.e., *1/*2, *2/*2, *1/*3, n=43) as compared to normal metabolizers (i.e., *1/*1, N=72). Adequate PK data are not available from CYP2C9 poor metabolizers (i.e., *2/*3).

[4] = Dedicated clinical study, pharmacokinetics in renal impairment; format: in vivo, human
Protocol: In a dedicated clinical study comparing the pharmacokinetics of rimegepant in subjects with mild (estimated creatinine clearance [CLcr] 60-89 mL/min), moderate (CLcr 30-59 mL/min), and severe (CLcr 15-29 mL/min) renal impairment to that with normal subjects (healthy matched control), the exposure of rimegepant following single 75 mg dose was approximately 40% higher in subjects with moderate renal impairment. […] NURTEC ODT has not been studied in patients with end-stage renal disease (CLcr<15 mL/min) [see Use in Specific Populations].

[5] = target: OCT2 (Homo sapiens, UniProt O15244); experiment: In vitro transporter inhibition; format: in vitro ADME
From the text: (§2) Rimegepant is an inhibitor of OATP1B3, OCT2, and MATE1. No clinical drug interactions are expected for NURTEC ODT with these transporters at clinically relevant concentrations.

[6] = target: OAT3 (Homo sapiens, UniProt Q8TCC7); experiment: In vitro transporter inhibition; format: in vitro ADME
From the text: as §2

[7] = target: OATP1B3 (Homo sapiens, UniProt Q9NPD5); experiment: In vitro transporter inhibition; format: in vitro ADME
From the text: as §2

[8] = target: OAT1 (Homo sapiens, UniProt Q4U2R8); experiment: In vitro transporter inhibition; format: in vitro ADME; details: at clinically relevant concentrations
From the text: as §2

[9] = target: MATE1 (Homo sapiens, UniProt Q96FL8); experiment: In vitro transporter inhibition; format: in vitro ADME
From the text: as §2

[10] = system: pregnant rats; experiment: Embryofetal development study, oral administration during organogenesis, rats; format: in vivo, rat
Protocol: Plasma exposures (AUC) at the no-effect dose (60 mg/kg/day) for adverse effects on embryofetal development were approximately 45 times that in humans at the maximum recommended human dose (MRHD) of 75 mg/day.

[11] = target: OATP1B1 (Homo sapiens, UniProt Q9Y6L6); experiment: In vitro transporter inhibition; format: in vitro ADME
[12] = target: BCRP (Homo sapiens, UniProt Q9UNQ0); experiment: In vitro transporter inhibition; format: in vitro ADME; details: at clinically relevant concentrations
[13] = Plasma protein binding; format: in vitro ADME
From the text: The steady state volume of distribution of rimegepant is 120 L. Plasma protein binding of rimegepant is approximately 96%.

[14] = Pharmacokinetic interactions with other drugs (oral contraceptives, midazolam, sumatriptan); format: in vivo, human; details: with oral contraceptives (norelgestromin, ethinyl estradiol), midazolam, or sumatriptan
[15] = system: rat micronucleus; experiment: Rat micronucleus assay (in vivo)
From the text: as §1

[16] = target: UGT1A1 (Homo sapiens, UniProt P22309); experiment: In vitro enzyme inhibition; format: in vitro ADME; details: at clinically relevant concentrations
From the text: (§3) Rimegepant is a substrate of CYP3A4 and CYP2C9 [see In Vivo Studies].

[17] = target: CYP2C9 (Homo sapiens, UniProt P11712); experiment: In vitro enzyme inhibition; format: in vitro ADME; details: at clinically relevant concentrations
From the text: as §3

[18] = target: CYP2B6 (Homo sapiens, UniProt P20813); experiment: In vitro enzyme inhibition; format: in vitro ADME; details: at clinically relevant concentrations
From the text: as §3

[19] = target: CYP2C19 (Homo sapiens, UniProt P33261); experiment: In vitro enzyme inhibition; format: in vitro ADME; details: at clinically relevant concentrations
From the text: as §3

[20] = target: CYP2D6 (Homo sapiens, UniProt P10635); experiment: In vitro enzyme inhibition; format: in vitro ADME; details: at clinically relevant concentrations
From the text: as §3

[21] = target: CYP3A4 (Homo sapiens, UniProt P08684); experiment: In vitro enzyme inhibition; format: in vitro ADME
From the text: as §3

[22] = target: CYP1A2 (Homo sapiens, UniProt P05177); experiment: In vitro enzyme inhibition; format: in vitro ADME; details: at clinically relevant concentrations
From the text: as §3

[23] = Pharmacokinetics in other specific populations; format: in vivo, human; details: based on age, sex, race/ethnicity, body weight, or CYP2C9 genotype
[24] = system: rats; experiment: Second fertility study, rats, lower doses (0, 5, 15, or 25 mg/kg/day); format: in vivo, rat

BCRP, sequence (Q9UNQ0 whole entry): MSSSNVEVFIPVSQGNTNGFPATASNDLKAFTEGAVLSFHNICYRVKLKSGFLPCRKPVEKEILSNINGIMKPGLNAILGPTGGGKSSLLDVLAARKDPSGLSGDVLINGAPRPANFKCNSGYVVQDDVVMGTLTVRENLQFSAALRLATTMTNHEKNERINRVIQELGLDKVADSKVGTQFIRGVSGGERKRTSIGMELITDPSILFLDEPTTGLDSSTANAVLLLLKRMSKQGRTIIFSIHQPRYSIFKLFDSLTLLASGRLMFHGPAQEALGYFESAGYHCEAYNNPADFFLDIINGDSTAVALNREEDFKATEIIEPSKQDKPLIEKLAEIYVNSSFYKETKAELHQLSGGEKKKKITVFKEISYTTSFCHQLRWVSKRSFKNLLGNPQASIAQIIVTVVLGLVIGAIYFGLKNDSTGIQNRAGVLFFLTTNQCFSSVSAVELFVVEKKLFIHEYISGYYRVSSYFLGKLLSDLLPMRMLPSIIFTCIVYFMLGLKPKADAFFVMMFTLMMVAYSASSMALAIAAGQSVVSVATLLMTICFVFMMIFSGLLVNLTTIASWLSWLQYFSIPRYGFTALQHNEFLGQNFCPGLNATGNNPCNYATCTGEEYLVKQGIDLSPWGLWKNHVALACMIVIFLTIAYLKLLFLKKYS
CYP2B6, sequence (P20813 whole entry): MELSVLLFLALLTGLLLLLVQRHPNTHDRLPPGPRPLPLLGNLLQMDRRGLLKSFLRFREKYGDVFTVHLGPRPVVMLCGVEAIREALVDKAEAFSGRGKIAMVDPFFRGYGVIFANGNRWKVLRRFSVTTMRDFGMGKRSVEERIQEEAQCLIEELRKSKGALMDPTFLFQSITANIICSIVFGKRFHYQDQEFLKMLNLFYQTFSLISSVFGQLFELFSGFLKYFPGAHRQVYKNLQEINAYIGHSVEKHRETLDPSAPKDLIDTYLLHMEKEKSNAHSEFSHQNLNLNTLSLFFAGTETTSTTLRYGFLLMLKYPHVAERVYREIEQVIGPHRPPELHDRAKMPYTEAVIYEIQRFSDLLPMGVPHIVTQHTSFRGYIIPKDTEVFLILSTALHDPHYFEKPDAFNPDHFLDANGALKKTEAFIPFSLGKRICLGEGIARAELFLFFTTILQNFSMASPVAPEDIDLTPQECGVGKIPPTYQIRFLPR
UGT1A1, sequence (P22309 26-533): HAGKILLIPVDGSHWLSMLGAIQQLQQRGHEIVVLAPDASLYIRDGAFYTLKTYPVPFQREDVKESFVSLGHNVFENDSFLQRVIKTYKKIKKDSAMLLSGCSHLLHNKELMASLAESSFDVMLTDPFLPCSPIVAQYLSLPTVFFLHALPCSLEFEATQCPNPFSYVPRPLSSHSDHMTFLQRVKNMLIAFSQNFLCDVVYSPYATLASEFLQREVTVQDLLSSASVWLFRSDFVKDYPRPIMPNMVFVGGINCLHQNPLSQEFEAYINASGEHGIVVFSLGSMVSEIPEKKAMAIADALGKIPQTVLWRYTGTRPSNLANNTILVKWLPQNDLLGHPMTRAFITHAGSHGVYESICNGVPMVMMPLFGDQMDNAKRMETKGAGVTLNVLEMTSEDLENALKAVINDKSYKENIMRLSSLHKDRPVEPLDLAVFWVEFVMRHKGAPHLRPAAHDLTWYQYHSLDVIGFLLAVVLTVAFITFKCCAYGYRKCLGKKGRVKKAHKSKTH
OATP1B1, sequence (Q9Y6L6 whole entry): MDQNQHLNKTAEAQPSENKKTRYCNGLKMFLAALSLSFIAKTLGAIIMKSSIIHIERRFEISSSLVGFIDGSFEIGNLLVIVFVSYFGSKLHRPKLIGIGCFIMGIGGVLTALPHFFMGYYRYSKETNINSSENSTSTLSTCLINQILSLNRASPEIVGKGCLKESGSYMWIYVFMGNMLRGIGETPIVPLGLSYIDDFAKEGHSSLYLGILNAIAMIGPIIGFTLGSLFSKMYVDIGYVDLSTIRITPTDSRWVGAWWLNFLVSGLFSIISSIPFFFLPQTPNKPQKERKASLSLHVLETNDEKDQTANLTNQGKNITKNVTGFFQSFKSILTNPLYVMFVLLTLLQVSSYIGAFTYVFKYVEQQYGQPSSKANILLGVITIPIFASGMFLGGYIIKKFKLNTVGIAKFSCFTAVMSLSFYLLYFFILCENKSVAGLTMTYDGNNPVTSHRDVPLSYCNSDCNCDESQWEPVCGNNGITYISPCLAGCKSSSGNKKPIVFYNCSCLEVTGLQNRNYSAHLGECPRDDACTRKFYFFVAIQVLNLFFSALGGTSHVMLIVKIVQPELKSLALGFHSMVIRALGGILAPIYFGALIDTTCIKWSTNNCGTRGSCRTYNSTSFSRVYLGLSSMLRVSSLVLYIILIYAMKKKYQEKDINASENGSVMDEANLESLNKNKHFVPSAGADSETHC
OAT1, sequence (Q4U2R8 whole entry): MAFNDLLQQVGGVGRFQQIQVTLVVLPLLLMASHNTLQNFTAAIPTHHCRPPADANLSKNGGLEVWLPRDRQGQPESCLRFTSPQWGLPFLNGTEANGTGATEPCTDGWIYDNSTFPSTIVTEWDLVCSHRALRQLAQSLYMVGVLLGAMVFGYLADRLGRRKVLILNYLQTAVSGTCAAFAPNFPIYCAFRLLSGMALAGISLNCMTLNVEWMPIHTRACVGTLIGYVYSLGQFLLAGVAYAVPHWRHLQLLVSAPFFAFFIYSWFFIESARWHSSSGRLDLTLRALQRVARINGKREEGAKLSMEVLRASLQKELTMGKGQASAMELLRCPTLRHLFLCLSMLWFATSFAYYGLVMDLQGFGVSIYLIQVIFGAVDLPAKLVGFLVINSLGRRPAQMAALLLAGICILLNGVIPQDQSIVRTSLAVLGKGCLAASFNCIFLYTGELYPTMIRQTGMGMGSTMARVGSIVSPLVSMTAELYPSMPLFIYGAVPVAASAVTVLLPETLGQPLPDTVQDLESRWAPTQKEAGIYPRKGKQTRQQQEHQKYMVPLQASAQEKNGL
MATE2-K, sequence (Q86VL8 1-566 isoform Q86VL8-3): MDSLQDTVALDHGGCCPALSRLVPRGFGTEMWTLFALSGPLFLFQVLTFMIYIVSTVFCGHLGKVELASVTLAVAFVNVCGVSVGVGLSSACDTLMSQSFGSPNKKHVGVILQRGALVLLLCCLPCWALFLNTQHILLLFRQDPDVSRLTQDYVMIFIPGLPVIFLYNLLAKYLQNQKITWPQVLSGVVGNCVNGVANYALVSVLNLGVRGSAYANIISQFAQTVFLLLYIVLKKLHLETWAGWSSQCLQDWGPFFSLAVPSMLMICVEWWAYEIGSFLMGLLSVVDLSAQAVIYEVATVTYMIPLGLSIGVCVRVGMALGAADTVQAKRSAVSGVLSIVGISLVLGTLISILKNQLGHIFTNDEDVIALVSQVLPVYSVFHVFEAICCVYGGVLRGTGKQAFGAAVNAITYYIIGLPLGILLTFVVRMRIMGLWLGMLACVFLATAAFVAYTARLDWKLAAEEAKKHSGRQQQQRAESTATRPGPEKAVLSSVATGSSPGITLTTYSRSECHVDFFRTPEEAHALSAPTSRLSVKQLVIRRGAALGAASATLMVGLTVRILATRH
CYP2D6, sequence (P10635 whole entry): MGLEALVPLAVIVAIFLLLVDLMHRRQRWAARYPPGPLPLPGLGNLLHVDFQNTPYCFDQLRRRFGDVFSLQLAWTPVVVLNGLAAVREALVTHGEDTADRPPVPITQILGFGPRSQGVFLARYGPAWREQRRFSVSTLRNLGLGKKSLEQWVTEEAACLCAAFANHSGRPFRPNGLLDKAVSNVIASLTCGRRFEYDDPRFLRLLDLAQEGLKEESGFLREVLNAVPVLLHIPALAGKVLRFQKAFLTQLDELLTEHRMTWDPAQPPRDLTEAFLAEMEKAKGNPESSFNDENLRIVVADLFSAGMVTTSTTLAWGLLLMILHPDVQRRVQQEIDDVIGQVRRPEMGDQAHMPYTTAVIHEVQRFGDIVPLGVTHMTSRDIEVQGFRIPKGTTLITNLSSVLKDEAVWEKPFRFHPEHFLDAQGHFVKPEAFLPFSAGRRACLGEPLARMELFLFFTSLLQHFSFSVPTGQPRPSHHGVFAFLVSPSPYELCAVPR
CYP1A2, sequence (P05177 whole entry): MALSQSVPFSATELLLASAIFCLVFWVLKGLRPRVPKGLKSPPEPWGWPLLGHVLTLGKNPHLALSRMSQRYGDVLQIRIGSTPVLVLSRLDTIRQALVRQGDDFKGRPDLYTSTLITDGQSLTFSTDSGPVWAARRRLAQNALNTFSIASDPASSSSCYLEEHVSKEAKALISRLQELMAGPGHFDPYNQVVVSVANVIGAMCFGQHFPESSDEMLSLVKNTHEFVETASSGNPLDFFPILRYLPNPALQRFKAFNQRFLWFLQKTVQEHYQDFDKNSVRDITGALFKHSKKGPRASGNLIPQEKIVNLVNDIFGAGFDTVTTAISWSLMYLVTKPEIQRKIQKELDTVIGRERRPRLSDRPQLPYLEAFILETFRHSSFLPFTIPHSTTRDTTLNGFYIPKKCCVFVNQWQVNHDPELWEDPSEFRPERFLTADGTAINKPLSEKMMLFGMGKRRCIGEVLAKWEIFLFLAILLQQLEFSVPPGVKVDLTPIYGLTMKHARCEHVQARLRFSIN
CYP2C9 (Homo sapiens, UniProt P11712), sequence (P11712 whole entry): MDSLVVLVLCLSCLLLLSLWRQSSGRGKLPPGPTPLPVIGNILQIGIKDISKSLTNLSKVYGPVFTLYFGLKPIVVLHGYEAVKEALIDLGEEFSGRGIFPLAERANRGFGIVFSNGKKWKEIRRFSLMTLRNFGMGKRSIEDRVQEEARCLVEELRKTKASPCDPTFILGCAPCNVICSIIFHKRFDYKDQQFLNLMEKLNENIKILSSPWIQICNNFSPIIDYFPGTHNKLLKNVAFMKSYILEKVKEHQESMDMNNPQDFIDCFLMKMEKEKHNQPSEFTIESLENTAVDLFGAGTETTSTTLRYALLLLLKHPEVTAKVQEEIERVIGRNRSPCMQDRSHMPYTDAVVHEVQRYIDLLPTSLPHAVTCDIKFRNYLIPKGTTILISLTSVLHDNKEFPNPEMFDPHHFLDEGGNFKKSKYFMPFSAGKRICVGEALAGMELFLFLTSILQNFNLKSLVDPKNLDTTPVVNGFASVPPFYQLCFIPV

SMILES: N[C@@H]1c2cccnc2[C@H](OC(=O)N2CCC(n3c(=O)[nH]c4ncccc43)CC2)CC[C@H]1c1cccc(F)c1F [rimegepant, (5S,6S,9R)-5-amino-6-(2,3-difluorophenyl)-6,7,8,9-tetrahydro-5H-cyclohepta[b]pyridin-9-yl 4-(2-oxo-2,3-dihydro-1H-imidazo[4,5-b]pyridin-1-yl)-1-piperidinecarboxylate]
- inhibition of MATE2-K [1]: not an inhibitor
- mutagenesis, bacterial reverse-mutation [2]: negative
- Cmax and AUC0-inf [3]: similar
- difference in exposure vs normal renal function ([4]; severe renal impairment (CLcr 15-29 mL/min)): no clinically meaningful difference
- exposure higher than in normal subjects ([4]; single 75 mg dose, moderate renal impairment (CLcr 30-59 mL/min)): approximately 40%
- inhibition of OCT2 [5]: inhibitor
- inhibition of OAT3 [6]: weak inhibitor
- inhibition of OATP1B3 [7]: inhibitor
- inhibition of OAT1 [8]: not an inhibitor
- inhibition of MATE1 [9]: inhibitor
- plasma exposure (AUC) relative to humans at the MRHD of 75 mg/day ([10]; at the no-effect dose (60 mg/kg/day)): approximately 45 times
- effects on embryofetal development ([10]; highest dose tested (300 mg/kg/day), oral, associated with maternal toxicity): decreased fetal body weight and an increased incidence of fetal variations
- no-effect dose for adverse effects on embryofetal development ([10]; oral, pregnant rats): 60 mg/kg/day
- inhibition of OATP1B1 [11]: weak inhibitor
- inhibition of BCRP [12]: not an inhibitor
- fraction unbound [13]: ~0.04
- pharmacokinetic interactions [14]: No significant pharmacokinetic interactions
- mutagenesis, rat micronucleus [15]: negative
- inhibition of UGT1A1 [16]: not an inhibitor
- inhibition of CYP2C9 [17]: not an inhibitor
- inhibition of CYP2B6 [18]: not an inhibitor
- inhibition of CYP2C19 [19]: not an inhibitor
- inhibition of CYP2D6 [20]: not an inhibitor
- inhibition of CYP3A4 [21]: weak inhibitor of CYP3A4 with time-dependent inhibition
- inhibition of CYP1A2 [22]: not an inhibitor
- differences in pharmacokinetics [23]: No clinically significant differences
- effects on fertility, uterine histopathology, early embryonic development ([24]; 0, 5, 15, or 25 mg/kg/day): no adverse effects on fertility, uterine histopathology, or early embryonic development
- plasma drug exposures (AUC) relative to humans at the MRHD ([24]; at the no-effect dose (25 mg/kg/day)): approximately 15 times
- no-effect dose for impairment of fertility and early embryonic development ([24]; rats): 25 mg/kg/day
